Data reported in PubChem BioAssay (NCI).
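Five compound concentrations were applied to cells in 96-well plates for 48 hours; endpoints were derived by simple linear interpolation of the resulting dose-response curve. Definition used: TGI = concentration required for complete inhibition of growth.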

Columns and labels:
Test in all cases: NCI tumour cell line growth inhibition, 48 h
[1] = tested on: A498 renal
[2] = tested on: ACHN renal
[3] = tested on: CAKI-1 renal
[4] = tested on: CCRF-CEM leukemia
[5] = tested on: EKVX NSCLC
[6] = tested on: HCC-2998 colon
[7] = tested on: HCT-116 colon
[8] = tested on: HCT-15 colon
[9] = tested on: HL-60(TB) leukemia
[10] = tested on: HOP-62 NSCLC
[11] = tested on: HT29 colon
[12] = tested on: IGROV1 ovarian
[13] = tested on: K-562 leukemia
[14] = tested on: KM12 colon
[15] = tested on: M14 melanoma
[16] = tested on: MALME-3M melanoma
[17] = tested on: MDA-MB-231 breast
[18] = tested on: MDA-MB-435
[19] = tested on: MDA-N
[20] = tested on: MOLT-4 leukemia
[21] = tested on: NCI-H23 lung
[22] = tested on: NCI-H460 lung
[23] = tested on: OVCAR-3 ovarian
[24] = tested on: OVCAR-4 ovarian
[25] = tested on: OVCAR-5 ovarian
[26] = tested on: PC-3 prostate
[27] = tested on: RPMI-8226 leukemia
[28] = tested on: SK-MEL-2 melanoma
[29] = tested on: SK-OV-3 ovarian
[30] = tested on: SN12C renal
[31] = tested on: SNB-19 CNS
[32] = tested on: SNB-75 CNS
[33] = tested on: SR leukemia
[34] = tested on: SW-620 colon
[35] = tested on: T-47D breast
[36] = tested on: TK-10 renal
[37] = tested on: UACC-257 melanoma
[38] = tested on: UACC-62 melanoma
[39] = tested on: 786-0 renal
[40] = tested on: A549 NSCLC
[41] = tested on: BT-549 breast
[42] = tested on: COLO 205 colon
[43] = tested on: DU-145 prostate
[44] = tested on: HS 578T breast
[45] = tested on: LOX IMVI melanoma
[46] = tested on: MCF7 breast
[47] = tested on: NCI-H226 lung
[48] = tested on: NCI-H522 lung
[49] = tested on: NCI/ADR-RES ovarian
[50] = tested on: OVCAR-8 ovarian
[51] = tested on: RXF 393 renal
[52] = tested on: SF-268 CNS
[53] = tested on: SF-295 CNS
[54] = tested on: SF-539 CNS
[55] = tested on: SK-MEL-28 melanoma
[56] = tested on: SK-MEL-5 melanoma
[57] = tested on: U251 CNS
[58] = tested on: UO-31 renal

Q: Which results are given for `N=c1c2c(ncn1N)Oc1c(c(-c3ccccc3)nn1-c1ccccc1)C2c1ccc(Cl)cc1` (stereo not drawn)?
A: TGI [1]: 4.32 µM; TGI [2]: 3.46 µM; TGI [3]: 3.71 µM; TGI [4]: > 100 µM; TGI [5]: 3.39 µM; TGI [6]: 3.08 µM; TGI [7]: 3.03 µM; TGI [8]: 3.65 µM; TGI [9]: > 100 µM; TGI [10]: 3.02 µM; TGI [11]: 2.77 µM; TGI [12]: 2.8 µM; TGI [13]: > 100 µM; TGI [14]: 2.99 µM; TGI [15]: 3.18 µM; TGI [16]: 3.1 µM; TGI [17]: 5.21 µM; TGI [18]: 3.46 µM; TGI [19]: 3.86 µM; TGI [20]: > 100 µM; TGI [21]: 3.31 µM; TGI [22]: 2.99 µM; TGI [23]: 3.11 µM; TGI [24]: 3.24 µM; TGI [25]: 2.93 µM; TGI [26]: 3.01 µM; TGI [27]: > 100 µM; TGI [28]: 3.1 µM; TGI [29]: 3.37 µM; TGI [30]: 3.89 µM; TGI [31]: 2.86 µM; TGI [32]: 2.83 µM; TGI [33]: > 100 µM; TGI [34]: 4.5 µM; TGI [35]: 4.99 µM; TGI [36]: 3.47 µM; TGI [37]: 3.71 µM; TGI [38]: 3.16 µM

Q: For `O=C(O)C(Cc1ccc(O)cn1)NC(=O)C(F)(F)F` (stereo not drawn), which TGI [39] is on record?
A: The TGI was > 100 µM.

Q: What about the TGI [1] of the same molecule?
A: The TGI was > 100 µM.

Q: And the TGI [40]?
A: Its TGI is > 100 µM.

Q: And the TGI [2]?
A: Its TGI is > 100 µM.

Q: And the TGI [41]?
A: The TGI was > 100 µM.

Q: What about the TGI [3] of the same molecule?
A: The TGI was > 100 µM.

Q: And the TGI [4]?
A: The TGI was > 100 µM.

Q: What about the TGI [42] of the same molecule?
A: Its TGI is > 100 µM.

Q: And the TGI [43]?
A: The TGI was > 100 µM.

Q: And the TGI [5]?
A: Its TGI is > 100 µM.

Q: And the TGI [6]?
A: Its TGI is > 100 µM.

Q: What about the TGI [7] of the same molecule?
A: The TGI was > 100 µM.

Q: What about the TGI [8] of the same molecule?
A: Its TGI is > 100 µM.

Q: What about the TGI [9] of the same molecule?
A: The TGI was > 100 µM.

Q: And the TGI [10]?
A: Its TGI is > 100 µM.

Q: What about the TGI [44] of the same molecule?
A: The TGI was > 100 µM.

Q: And the TGI [11]?
A: Its TGI is > 100 µM.

Q: And the TGI [12]?
A: The TGI was > 100 µM.

Q: What about the TGI [13] of the same molecule?
A: Its TGI is > 100 µM.

Q: What about the TGI [14] of the same molecule?
A: The TGI was > 100 µM.

Q: What about the TGI [45] of the same molecule?
A: The TGI was > 100 µM.

Q: What about the TGI [16] of the same molecule?
A: Its TGI is > 100 µM.

Q: What about the TGI [46] of the same molecule?
A: The TGI was > 100 µM.

Q: What about the TGI [17] of the same molecule?
A: The TGI was > 100 µM.

Q: And the TGI [18]?
A: The TGI was > 100 µM.

Q: What about the TGI [19] of the same molecule?
A: Its TGI is > 100 µM.

Q: What about the TGI [47] of the same molecule?
A: The TGI was > 100 µM.

Q: What about the TGI [21] of the same molecule?
A: The TGI was > 100 µM.

Q: What about the TGI [22] of the same molecule?
A: The TGI was > 100 µM.

Q: And the TGI [48]?
A: Its TGI is > 100 µM.

Q: What about the TGI [49] of the same molecule?
A: The TGI was > 100 µM.

Q: What about the TGI [23] of the same molecule?
A: The TGI was > 100 µM.

Q: What about the TGI [25] of the same molecule?
A: Its TGI is > 100 µM.

Q: And the TGI [50]?
A: Its TGI is > 100 µM.

Q: What about the TGI [26] of the same molecule?
A: Its TGI is > 100 µM.

Q: What about the TGI [27] of the same molecule?
A: Its TGI is > 100 µM.

Q: What about the TGI [51] of the same molecule?
A: Its TGI is > 100 µM.

Q: And the TGI [52]?
A: Its TGI is > 100 µM.

Q: What about the TGI [53] of the same molecule?
A: The TGI was > 100 µM.

Q: What about the TGI [54] of the same molecule?
A: Its TGI is > 100 µM.

Q: What about the TGI [55] of the same molecule?
A: The TGI was > 100 µM.

Q: And the TGI [56]?
A: The TGI was > 100 µM.

Q: What about the TGI [30] of the same molecule?
A: The TGI was > 100 µM.

Q: What about the TGI [31] of the same molecule?
A: Its TGI is > 100 µM.

Q: And the TGI [33]?
A: The TGI was > 100 µM.

Q: And the TGI [34]?
A: The TGI was > 100 µM.

Q: And the TGI [36]?
A: Its TGI is > 100 µM.

Q: And the TGI [57]?
A: Its TGI is > 100 µM.

Q: And the TGI [37]?
A: Its TGI is > 100 µM.

Q: What about the TGI [58] of the same molecule?
A: Its TGI is > 100 µM.
